Laboratory results from the NIST ThermoML archive (doi:10.1016/j.fluid.2010.03.012).

Assay: osmotic coefficient (dimensionless); mn = molality of the nth substance listed, in mol/kg
Conditions: 101 kPa, Liquid, isopiestic method

C1CN2CN3CCN(CN1C3)C2 [1,3,6,8-tetraazatricyclo[4.4.1.1(3,8)]dodecane] + O
Conditions | osmotic coefficient
288.15 K, m1 = 0.2149 | 0.9605
288.15 K, m1 = 0.2154 | 0.9583
288.15 K, m1 = 0.3036 | 0.9533
288.15 K, m1 = 0.3041 | 0.9518
288.15 K, m1 = 0.5049 | 0.9571
288.15 K, m1 = 0.5066 | 0.9563
288.15 K, m1 = 0.603 | 0.9824
288.15 K, m1 = 0.604 | 0.9816
288.15 K, m1 = 0.7629 | 1.016
288.15 K, m1 = 0.7638 | 1.015
288.15 K, m1 = 1.011 | 1.1
293.15 K, m1 = 0.2023 | 0.991
293.15 K, m1 = 0.2031 | 0.9887
293.15 K, m1 = 0.3454 | 0.9917
293.15 K, m1 = 0.3458 | 0.9907
293.15 K, m1 = 0.5003 | 0.993
293.15 K, m1 = 0.5009 | 0.9919
293.15 K, m1 = 0.7613 | 1.035
293.15 K, m1 = 0.7629 | 1.033
293.15 K, m1 = 0.9099 | 1.056
293.15 K, m1 = 0.9108 | 1.055
293.15 K, m1 = 1.068 | 1.119
293.15 K, m1 = 1.069 | 1.118
298.15 K, m1 = 0.2201 | 1.014
298.15 K, m1 = 0.2205 | 1.012
298.15 K, m1 = 0.3086 | 1.017
298.15 K, m1 = 0.3087 | 1.016
298.15 K, m1 = 0.5052 | 1.028
298.15 K, m1 = 0.5055 | 1.027
298.15 K, m1 = 0.562 | 1.032
298.15 K, m1 = 0.5624 | 1.032
298.15 K, m1 = 0.7125 | 1.045
298.15 K, m1 = 0.9849 | 1.075
298.15 K, m1 = 0.9867 | 1.073
303.15 K, m1 = 0.2074 | 0.972
303.15 K, m1 = 0.2079 | 0.9707
303.15 K, m1 = 0.3266 | 0.9871
303.15 K, m1 = 0.3271 | 0.9863
303.15 K, m1 = 0.5022 | 1.015
303.15 K, m1 = 0.5029 | 1.014
303.15 K, m1 = 0.6864 | 1.033
303.15 K, m1 = 0.6868 | 1.034
303.15 K, m1 = 0.7946 | 1.057
303.15 K, m1 = 0.7955 | 1.057
303.15 K, m1 = 1.028 | 1.103
303.15 K, m1 = 1.029 | 1.102
